Measurements taken from patent US20230277680A1, “CONJUGATE OF A SINGLE DOMAIN ANTIBODY, A SAPONIN AND AN EFFECTOR MOLECULE, PHARMACEUTICAL COMPOSITION COMPRISING THE SAME, THERAPEUTIC USE OF SAID PHARMACEUTICAL COMPOSITION” (SAPREME TECHNOLOGIES B.V., priority 2020, published 2023).

Experiments:
[1] = test system: A431 cells; assay: Cell viability (MTS) assay, cell killing; assay type: cell-based, human; conditions: read-out: [SO1861] IC50 cell killing, + fixed 10 μM cetuximab-saporin, calculated on concentration SO1861
Procedure: (§1) After treatment the cells were incubated for 72 hr at 37° C. before the cell viability was determined by a MTS-assay, performed according to the manufacturer's instruction (CellTiter 96® AQueous One Solution Cell Proliferation Assay, Promega). Briefly, the MTS solution was diluted 20× in DMEM without phenol red (PAN-Biotech GmbH) supplemented with 10% FBS. The cells were washed once with 200 μL/PBS well, after which 100 μL diluted MTS solution was added/well. The plate was incubated for approximately 20-30 minutes at 37° C. Subsequently, the OD at 492 nm was measured on a Thermo Scientific Multiskan FC plate reader (Thermo Scientific). For quantification the background signal of ‘medium only’ wells was subtracted from all other wells, before the cell viability percentage of treated/untreated cells was calculated, by dividing the background corrected signal of treated wells over the background corrected signal of the untreated wells (×100). […]
(§2) After treatment the cells were incubated for 72 hr at 37° C. before the cell viability was determined by a MTS-assay, performed according to the manufacturer's instruction (CellTiter 96® AQueous One Solution Cell Proliferation Assay, Promega). […] Subsequently, the optical density at 492 nm was measured on a Thermo Scientific Multiskan FC plate reader (Thermo Scientific). […]

[2] = test system: SK-BR-3 cells; assay: Cell viability (MTS) assay, cell killing; assay type: cell-based, human; conditions: read-out: [SO1861] IC50 cell killing; SKBR3; + fixed 1.5 μM EGF-dianthin
Procedure: as §1, §2

## CC(=O)O[C@H]1[C@H](O[C@@H]2OC[C@@H](O)[C@H](O)[C@H]2O)[C@@H](O)[C@H](O[C@@H]2[C@H](O)[C@@H](O[C@@H]3O[C@@H](C)[C@H](O[C@@H]4OC[C@@H](O)[C@H](O[C@@H]5OC[C@@H](O)[C@H](O)[C@H]5O)[C@H]4O)[C@@H](O)[C@H]3O)[C@H](OC(=O)[C@]34CCC(C)(C)C[C@H]3C3=CC[C@@H]5[C@@]6(C)CC[C@H](O[C@H]7O[C@H](C(=O)O)[C@@H](O)[C@H](O[C@@H]8OC[C@@H](O)[C@H](O)[C@H]8O)[C@H]7O[C@@H]7O[C@H](CO)[C@H](O)[C@H](O)[C@H]7O)[C@@](C)(C=O)[C@@H]6CC[C@@]5(C)[C@]3(C)C[C@H]4O)O[C@@H]2C)O[C@@H]1C [SO1861]
[1]
  IC50: 600 nM
[2]
  IC50: 800 nM
